Measurements published in US11673891B2, “Imidazopyrimidine compounds and uses thereof” (Dana-Farber Cancer Institute, Inc., priority 2017, dated 2023).

How the values were obtained:
[1] = test system: THP1-Lucia cells; assay: NF-kB-induced luminescence assay in THP1-Lucia cells; type: cell-based, human; details: in comparison to positive control R848, N=4
Experimental: THP-1 Cell Line and Culture Conditions. The THP1-Lucia™ cell line was obtained from Invivogen (San Diego, Calif.). THP1-Lucia cells, which are human monocytic cells derived from the blood of a child with leukemia, contain an NF-kB-inducible Luc reporter construct. This allows NF-kB activation to be measured by quantifying the luminescence from the secreted luciferase enzyme. THP1-Lucia cells were cultured in RPMI 1640 supplemented with 10% non-heat inactivated fetal bovine serum (FBS), 10 mM HEPES, 1.0 mM sodium pyruvate, 50 ug/ml Pen-Strep, and 100 ug/mL Normocin™. Once cultured, the cells were stored in a 37° C. incubator with 5% CO2 and a humidified atmosphere. Cells were passaged every 2-3 days and not allowed to exceed a concentration of 2.0×10^6 cells/ml media.
NF-kB-induced Luminescence Assay. THP1-Lucia cells between passage 15 and 18 and suspended in culture medium were dispensed into 384-well black clear-bottom plates (Corning 3712) at 30,000 cells/30 μl/well using a Combi liquid dispenser. […] Immediately after adding the substrate, the luminescence was read using a PerkinElmer Envision plate reader.

[2] = test system: human adult PBMCs; assay: TNF production by ELISA after stimulation of human adult PBMCs; type: cell-based; details: 33 μM, 18 hours
Experimental: Table 1. Activity of Exemplary Imidazopyrimidine Compounds on Stimulating TNF Production in PBMCs as Compared to Compound R848 Table 1 provides the activity of exemplary compounds on stimulating TNF production in PBMCs as compared to the benchmark compound R848. Specifically, TNF production was measured by ELISA after stimulation of adult PBMCs with compound 037 analog family or the compound R848 at 33 μM for 18 hours. Analogs are ranked top to bottom by median percentage TNF production (TNF %) as compared to R848 (N=3-5). The compounds have been classified in the following categories according to TNF %: high activity—class A: TNF %>15%; medium activity—class B: 1%<TNF %≤15%; low activity—class C: TNF %≤1%.
(§1) ELISAs and Multiplex-Analyte Assays. Supernatants derived from human PBMCs and DC stimulations were assayed by ELISA for TNF (ThermoFisher Scientific; Waltham, Mass., USA). Cytokine and chemokine expression profiles (e.g., IFNγ, IL-9, IL-10, IL-12 (p70), IL-13, IL-1β, IL-23, IL-27, IL-28A, IL-33, IL-6, MIP-3α/CCL20, and TNF) in cell culture supernatants were measured using a customized Milliplex® Human Th17 Magnetic Bead Panel according to the manufacturer's instructions (Millipore, Chicago, Ill., USA). Assays were read and analyzed on the Luminex® 100/200™ System and xPOTENT® software (Luminex, Austin, Tex.). A minimum threshold was set at the minimum detectable concentration for each individual assay, defined as three standard deviations above the mean background.
PBMCs were isolated from blood using a Ficoll density gradient. PBMCs either used fresh or were stored at 5×10^7 cells per vial in 1 mL RPMI containing 20% autologous plasma and 10% DMSO at −80° C. until use. Stimulation plates were prepared by transferring 0.66 μl of DMSO-dissolved compounds (10 mM) to each well of a round bottom 96-well plate. PBMCs isolated from human adult donors were resuspended at a concentration of 10^5 cells/200 μl of RPMI supplemented with 10% of platelet-poor plasma. 200 μl of the cell suspension were transferred to each well resulting in a final compound concentration of […]. After about 18 hours of incubation (37° C., 5% CO2), plates were spun down (500×g, room temperature, 5 minutes) and supernatants were harvested for further analysis.

[3] = test system: Human adult and elderly PBMCs; assay: Adult and elderly PBMCs stimulated with confirmed hit compounds, TNF and IL-1β by ELISA; type: cell-based; details: 18 hours, N=5
Experimental: (FIG. 2A) Human adult (top) and elderly (bottom) PBMCs stimulated for 18 hours with the TLR7/8 agonist R848 and 24 confirmed hit compounds from TNF AlphaLISA screen. TNF (left panels) and IL-1β (right panels) were assessed in cell-free supernatants by ELISA. Data are shown as median and interquartile range of N=5.
as §1

[4] = test system: human adult PBMCs; assay: 9-plex multiplex cytokine assay after stimulation of adult PBMCs; type: cell-based; details: 0.1 μM-33 μM, 18 hours, 10% autologous plasma, fold-change over unstimulated control, N=4
Experimental: Shown is a 9-plex multiplex cytokine assay after stimulation of adult peripheral blood mononuclear cells (PBMCs) with compound 037 or R848 at four different concentrations (0.1 μM-33 μM). Radar plots of immune polarizing cytokine production from human adult PBMCs stimulated for 18 hours in 10% autologous plasma, represented as fold-change over RPMI unstimulated control (N=4).
as §1

Which results are given for `CCC(C(=O)Nc1cc(-c2cn3cccnc3n2)ccc1C)c1ccccc1` (stereo not shown) [Compound 37]?
NF-κB-driven expression of luciferase in THP1 cells (in words) [1]: does not substantially activate THP1 cells; TNF (Median) ([2]; adult PBMCs, ELISA, median, N=3-5, unit not given (FIG. 6B/7B legends: TNF concentration in ng/ml)): 2.403; Activity class ([2]; class according to TNF % as compared to R848, adult PBMCs): A (high activity—class A: TNF %>15%); Production of human TNF by PBMCs (in words) ([2]; human adult PBMCs, ELISA): induces robust production of TNF-α; TNF % (Median) ([2]; median percentage TNF production as compared to R848, adult PBMCs, N=3-5): 69.79%; TNF and IL-1β induction from adult and elderly PBMCs (in words) [3]: induce TNF and IL-1β from adult and elderly PBMCs; Cytokine response, 9-plex multiplex (in words) [4]: induced a broad concentration-dependent cytokine response
